Test results: patent US12391962B2, “Targeting peptide to deliver a compound to oocytes” (THE PENN STATE RESEARCH FOUNDATION, priority 2017, dated 2025)

What was measured:
B. tabaci ovaries = assay: Validation of the BtKV ovary targeting ligand (epifluorescence of dissected ovaries); assay type: in vivo, Bemisia tabaci; conditions: ovaries dissected 24 hours post-injection; vs PBS-injected controls
Method: For initial experiments B. tabaci adults of unknown age and mating status were aspirated from the colony cage into 2-dram screw cap vials, placed in ice to anesthetize the insects, sexed, and transferred to a standard plain glass slide with double-sided tape on a chill table. For later experiments we established a synchronous colony so that we could control for the age of injected insects (see below). For localization of BtKV fusion protein into the embryos, female B. tabaci were injected in the abdomen with BtKV-mCherry fusion protein (3 mg/ml) or PBS control using quartz capillary needles. Samples were collected 24 hours post injection and ovaries dissected onto a concavity microscope slide with a glass coverslip and imaged by epifluorescence microscopy.
We therefore designed a new targeting peptide suitable for this insect species based on its endogenous vitellogenin protein (“BtKV”; […] (SEQ ID NO: 30)) (see methods). B. tabaci oocyte development is asynchronous with stage I, II, III, and IV at 11 days post eclosion or older^19 where oocytes are always developing. Developmental phase II oocytes have the highest amount of vitellogenin uptake via endocytosis and nutrient cord^19. After injection of BtKV-mCherry into reproductive adult B. tabaci females, ovaries were dissected after 24 hours and visualized for red fluorescence.

B. tabaci white gene = assay: Knockout of the B. tabaci white gene by ReMOT Control (adult female injection); assay type: in vivo, Bemisia tabaci; conditions: BtKV as the targeting peptide
Method: The females were injected and placed on a piece of soybean leaflet in a petri dish with a moist paper towel wrapped around the stem and another paper towel on the bottom plate to prolong the life of the leaflet. Water and liquid fertilizer were added as needed. Females were removed from the leaflet 2 weeks post injection. The petri dishes were incubated at 28° C., 16L/8D cycle, in a humidified Heratherm IMH750-S reach-in chamber, and the progeny of injected females screened visually for altered eye color in nymphs or adults using an Olympus SZX7 stereomicroscope. Mutations in insects showing altered eye color were confirmed by PCR using PHIRE Tissue Direct PCR Master Mix (Thermo Fischer Scientific), the amplicon was cloned into pJET1.2, and clones were submitted for Sanger sequencing.
For proof of principle gene editing experiments, we chose the white gene, which is an ABC transporter protein responsible for transport of ommochrome pigments into the eyes.

Sequence: KPYGVYKTMEDSV (listed as Bemisia tabaci) [BtKV]
- fluorescent cargo in oocytes (B. tabaci ovaries): visible in dissected mature oocytes
- independent replicate injection experiments from which white-eye nymphal offspring were recovered (B. tabaci white gene): 7 of 14
